Assay results from US20160264593A1 (priority 2013, published 2016).

Assay: in vivo
Settings: male, rat, in vivo; for AUC(0-t): AUC0-t of 100; for AUC(0-inf): AUC0-∞ of 100; for Cmax: Cmax of 100; for Tmax: Tmax of 100; for MRT: MRT of 100; for half-life: T1/2 of 100
Protocol: A pharmacokinetic study of 151 was conducted in SD rats. The study consisted of two dose levels at 1.0 (iv) and 10 (oral) mg/kg. The blood samples were collected at predetermined times from rats and centrifuged to separate plasma. An LC/MS/MS method was developed to determine the test article in plasma samples. The pharmacokinetic parameters of 151 following iv and oral administration to SD rats were calculated. The absolute bioavailability was evaluated.
The final concentration of the test article was 0.2 mg/mL for iv administration and 1.0 mg/mL for oral administration. The test article solutions were administered using the most recent body weight for each animal.
Blood (approximately 0.3 mL) were collected via orbital plexus into tubes containing sodium heparin at 0.25, 0.5, 1, 2, 3, 5, 7, 9, and 24 hours after oral administration; at 5 min, 15 min, 0.5, 1, 2, 3, 5, 7, 9 and 24 hours after iv administration. Samples were centrifuged for 5 min, at 4° C. with the centrifuge set at 11,000 rpm to separate plasma. The obtained plasma samples were stored frozen at a temperature of about −70° C. until analysis.
Frozen plasma samples were thawed at room temperature and vortexed thoroughly. With a pipette, an aliquot (30 μL) of plasma was transferred into a 1.5-mL conical polypropylene tube. To each sample, 160 μL of acetonitrile were added. The samples were then vigorously vortex-mixed for 1 min. After centrifugation at 11000 rpm for 5 min, a 15 μL aliquot of the supernatant was injected into the LC-MS/MS system for analysis.
Calibration standards were prepared by spiking 30 μL of the 151 standard solutions into 30 μL of heparinized blank rat plasma. The nominal standard concentrations in the standard curve were 1.00, 3.00, 10.0, 30.0, 100, 300, 1000 and 3000 ng/mL.
The analysis was performed using an LC-MS/MS system consisting of the following components—HPLC system: Agilent 1200 series instrument consisting of G1312B vacuum degasser, G1322A binary pump, G1316B column oven and G1367D autosampler (Agilent, USA); MS/MS system: Agilent 6460 triple quadrupole mass spectrometer, equipped with an APCI Interface (Agilent, USA); Data system: MassHunter Software (Agilent, USA).
Chromatographic separation was carried out at room temperature—Analytical column: C8 column (4.6 mm×150 mm I.D., 5 μm, Agilent, USA); Mobile phase: Acetonitrile:10 mM ammonium acetate (75:25, v/v); Flow rate: 0.80 mL/min; Injection volume: 15 μL.
The mass spectrometer was operated in the positive mode. Ionization was performed applying the following parameters: gas temperature, 325° C.; vaporizer temperature, 350° C.; gas flow, 4 L/min; nebulizer, 20 psi; capillary voltage, 4500 V; corona current, 4 μA. 151 was detected using MRM of the transitions m/z 283→m/z 123 and m/z 283→m/z 251, simultaneously. The optimized collision energies of 25 eV and 10 eV were used for m/z 123 and m/z 251, respectively.
Quantification was achieved by the external standard method. Concentrations of the test article were calculated using a weighted least-squares linear regression (W=1/x^2).
The pharmacokinetic parameters were evaluated using WinNonlin version 5.3 (Pharsight Corp., Mountain View, Calif., USA), assuming a non-compartmental model for drug absorption and distribution. • AUC0-t is the area under the plasma concentration-time curve from time zero to last sampling time, calculated by the linear trapezoidal rule. • AUC0-∞ is the area under the plasma concentration-time curve from time zero extrapolating to infinity. • T1/2 is the elimination half-life associated with the terminal (log-linear) elimination phase, which is estimated via linear regression of time vs. log concentrations. • CL is the total body clearance. • Vss is the volume of distribution at steady-state.

[1] = Sprague-Dawley (SD), iv, 1 mg/kg, Plasma Concentration of 100
[2] = Sprague-Dawley (SD), po, 10 mg/kg
[3] = Sprague-Dawley (SD), po, 10 mg/kg, Plasma Concentration of 100

Compound `CN1CCN(C(=O)C2C3CCC(O3)C2C(=O)O)CC1` (centres unmarked) [Compound 100, 3-(4-methylpiperazine-1-carbonyl)-7-oxa-bicyclo[2,2,1]-heptane-2-carboxylic acid] has a concentration at 0.083 h [1] of 646 ng/mL, a concentration at 0.25 h [1] of 345 ng/mL and a concentration at 0.5 h [1] of 308 ng/mL. It also gave a concentration at 1 h [1] of 257 ng/mL, a concentration at 2 h [1] of 125 ng/mL and a concentration at 3 h [1] of 32.2 ng/mL. The concentration at 5 h [1] was 10.2 ng/mL, the AUC(0-t) [2] was 3370 ng·h/mL and the AUC(0-inf) [2] was 3430 ng·h/mL. The Cmax [2] was 1450 ng/mL, the concentration at 0.5 h [3] was 1450 ng/mL and the concentration at 1 h [3] was 1160 ng/mL. For the same compound, the concentration at 2 h [3] was 781 ng/mL, the concentration at 9 h [3] was 31.3 ng/mL and the Tmax [2] was 40.2 min. The AUC(0-t) (Sprague-Dawley, iv, 1 mg/kg) was 681 ng·h/mL, the AUC(0-inf) (Sprague-Dawley, iv, 1 mg/kg) was 694 ng·h/mL and the Cmax (Sprague-Dawley, iv, 1 mg/kg) was 646 ng/mL. For the same compound, the MRT (Sprague-Dawley, iv, 1 mg/kg) was 69.6 min, the half-life (Sprague-Dawley, iv, 1 mg/kg) was 52.8 min and the Tmax (Sprague-Dawley, iv, 1 mg/kg) was 4.98 min. For the same compound, the “Cmax of 100” value (Sprague-Dawley, po, 10 mg/kg) was 1447 ng/mL, the “Tmax of 100” value (Sprague-Dawley, po, 10 mg/kg) was 30 min and the AUC(0-t) (Sprague-Dawley, po, 10 mg/kg) was 2800 ng·h/mL. For the same compound, the AUC(0-inf) (Sprague-Dawley, po, 10 mg/kg) was 2860 ng·h/mL, the Cmax (Sprague-Dawley, po, 10 mg/kg) was 1430 ng/mL and the MRT (Sprague-Dawley, po, 10 mg/kg) was 126 min. For the same compound, the half-life (Sprague-Dawley, po, 10 mg/kg) was 82.8 min and the Tmax (Sprague-Dawley, po, 10 mg/kg) was 30 min.
